These results are taken from ChEMBL document CHEMBL1133425, “Synthesis and dopaminergic activity of heterocyclic analogues of 5,6-dihydroxy-2-aminotetralins” (2000).

Assay [1] is filed under the species Oryctolagus cuniculus. In words: D1-like activity was evaluated as pD2 on a superfused rabbit splenic artery. In kind it is functional.
The species named for assay [2] is Oryctolagus cuniculus. Nature of the assay: D2-like activity was evaluated as pD2 on a superfused rabbit ear artery. In kind it is functional.

On to `CCCN(CCC)C1CCc2c(ccc(O)c2O)C1` (centres undefined), for which the pD2 was found to be 6.5 in the assay listed under Oryctolagus cuniculus [1] and 9.8 in the assay listed under Oryctolagus cuniculus [2].

Turning to `CCCN(CCCCCCNCCc1ccc(S(C)(=O)=O)cc1)[C@H]1CCc2c(ccc(O)c2O)C1`, the pD2 in the assay filed under Oryctolagus cuniculus [1] came to 8.6; in the assay filed under Oryctolagus cuniculus [2] it was 10.1.

On to `CCCN(CCCCCCNCCc1ccc(S(C)(=O)=O)cc1)C1CCc2nc(N)sc2C1` (centres undefined), for which the pD2 turned out to be 6.3 in the assay listed under Oryctolagus cuniculus [1] and 8.4 in the assay listed under Oryctolagus cuniculus [2].

As for `CS(=O)(=O)c1ccc(CCNCCCCCCNCCc2cccnc2)cc1`, the pD2 is reported as less than 5 in the assay filed under Oryctolagus cuniculus [1] and 5.5 in the assay filed under Oryctolagus cuniculus [2].

Take `CCCN(CCCCCCNCCc1ccc(S(C)(=O)=O)cc1)C1CCc2ncccc2C1` (centres undefined): the pD2 in the assay filed under Oryctolagus cuniculus [1] is recorded as less than 5; in the assay listed under Oryctolagus cuniculus [2], 8.4.

In the case of `CS(=O)(=O)c1ccc(CCNCCCCCCNC2CCc3[nH]ccc3C2)cc1` (centres undefined), the pD2 in the assay filed under Oryctolagus cuniculus [1] is less than 5; in the assay filed under Oryctolagus cuniculus [2], less than 6.

In the assay listed under Oryctolagus cuniculus [1], `CCCN(CCCCCCNCCc1ccc(S(C)(=O)=O)cc1)C1CCc2[nH]ccc2C1` (centres undefined) had a pD2 of less than 5.

The compound `CCCN(CCCCCCN(CCC)C1CCc2nc(O)ccc2C1)CCc1ccc(S(C)(=O)=O)cc1` (centres undefined) returned a pD2 in the assay filed under Oryctolagus cuniculus [1] of less than 5.

`CS(=O)(=O)c1ccc(CCNCCCCCCNCCc2cc[nH]c2)cc1` registered a pD2 in the assay filed under Oryctolagus cuniculus [1] of less than 5.

Turning to `CCCN(CCCCCCN(CCC)CCc1cccnc1)CCc1ccc(S(C)(=O)=O)cc1`, the pD2 in the assay filed under Oryctolagus cuniculus [1] was 5.5; in the assay listed under Oryctolagus cuniculus [2] it was less than 6.

Regarding `CS(=O)(=O)c1ccc(CCNCCCCCCNC2CCc3ncccc3C2)cc1` (centres undefined), the pD2 in the assay filed under Oryctolagus cuniculus [1] is on record as less than 5; in the assay filed under Oryctolagus cuniculus [2] it was 6.3.
